Test results published in patent US6734190B2, “Dihydrodipyrazolopyridinylbenzamide and -sulfonamide inhibitors of B7-1” (Wyeth, priority 2002, dated 2004).

target: T1, B7-1/CD28 (Homo sapiens, UniProt P33681); experiment: CD28/B7-1 ELISA (B7-1/CD28 binding inhibition); details: CD28-Fc coated wells; B7-1-Fc-biotin/streptavidin-alkaline phosphatase detection complex; 1% DMSO
T1 sequence (P33681 35-242 limits assumed): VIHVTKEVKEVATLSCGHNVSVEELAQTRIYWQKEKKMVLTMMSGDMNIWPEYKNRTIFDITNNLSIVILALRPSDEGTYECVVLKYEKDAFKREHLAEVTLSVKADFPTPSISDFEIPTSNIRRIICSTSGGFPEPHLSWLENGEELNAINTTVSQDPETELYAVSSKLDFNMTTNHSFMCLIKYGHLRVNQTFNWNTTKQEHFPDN
Description: Evaluation of B7-1/CD28 Binding Inhibition for Test Compounds
Wells are coated with 300 ng CD28-Fc in carbonate buffer (pH 9.4) overnight at 4° C., blocked with 1% bovine serum albumin in tris-buffered saline (TBS) for 1 h at 22° C. and washed 3 times in TBS prior to assay. The detection complex is formed as follows: B7-1-Fc-biotin, prepared using NHS-LC-biotin (Pierce #21335) according to the manufacturers instructions (4.1 moles biotinimole Fc), is added at 0.8 ug/ml to streptavidin-alkaline phosphatase (Caltag Sa1008) at 1:1000 in TBS. A solution of test compound in dimethylsulfoxide (1% final) are added to this complex and incubated 30 min at 22° C. Detection complex (+/−inhibitors) is then added to the CD28 coated wells for 25 min at 22° C., washed 5 times with TBS, developed with the colorimetric substrate pNPP (Pierce #34045) in diethanolamine/MgCl2 buffer (pH 9.5) and read at 405 nm. The inhibition constant (IC50) is calculated by subtracting background binding and comparing to uninhibited (DMSO alone) controls. The inhibition constant represents the concentration of test compound required to achieve 50% inhibition.

Structure (SMILES)	IC50 [nM]
Cn1ncc2c3[nH]n(-c4cccc(C(=O)N5CCC(C(=O)O)CC5)c4)c(=O)c3c(-c3cccc(C(F)(F)F)c3)nc21 [Example 54]	860
Cn1ncc2c3[nH]n(-c4cccc(C(=O)Nc5cccc(CO)c5)c4)c(=O)c3c(-c3cccc(C(F)(F)F)c3)nc21 [Example 50]	100
CN(CCO)C(=O)c1cccc(-n2[nH]c3c(c(-c4cccc(C(F)(F)F)c4)nc4c3cnn4C)c2=O)c1 [Example 14]	61
COCCCNC(=O)c1cccc(-n2[nH]c3c(c(-c4cccc(C(F)(F)F)c4)nc4c3cnn4C)c2=O)c1 [Example 63]	180
Cn1ncc2c3[nH]n(-c4ccc(C(=O)Nc5cccc(CO)c5)cc4)c(=O)c3c(-c3cccc(C(F)(F)F)c3)nc21 [Example 35, N-[3-(hydroxymethyl)phenyl]4-(6-methyl-3-oxo-4-[3-(trifluoromethyl)phenyl]-3,6-dihydrodipyrazolo[3,4-b:3,4-d]pyridin-2(1H)-yl)benzamide]	17
Cn1ncc2c3[nH]n(-c4ccc(F)c(C(=O)Nc5ccc(CCO)cc5)c4)c(=O)c3c(-c3cccc(C(F)(F)F)c3)nc21 [Example 62]	380
Cn1ncc2c3[nH]n(-c4ccc(C(=O)Nc5cccnc5)cc4)c(=O)c3c(-c3cccc(C(F)(F)F)c3)nc21 [Example 79]	180
Cn1ncc2c3[nH]n(-c4ccc(C(=O)N5CCCC(O)C5)cc4)c(=O)c3c(-c3cccc(C(F)(F)F)c3)nc21 (stereo not drawn) [Example 95]	390
Cn1ncc2c3[nH]n(-c4cccc(C(=O)N5CCC(O)CC5)c4)c(=O)c3c(-c3cccc(C(F)(F)F)c3)nc21 [Example 59]	105
Cn1ncc2c3[nH]n(-c4cccc(C(=O)Nc5ccc(CCO)cc5)c4)c(=O)c3c(-c3cccc(C(F)(F)F)c3)nc21 [Example 55]	110
Cn1ncc2c3[nH]n(-c4ccc(C(=O)Nc5ccc(F)c(F)c5)cc4)c(=O)c3c(-c3cccc(C(F)(F)F)c3)nc21 [Example 82]	120
Cn1ncc2c3[nH]n(-c4ccc(S(=O)(=O)NCCO)cc4)c(=O)c3c(-c3cccc(C(F)(F)F)c3)nc21 [Example 104, N-(2-hydroxyethyl)-4-(6-methyl-3-oxo-4-[3-(trifluoromethyl)phenyl]-3,6-dihydrodipyrazolo[3,4-b:3,4-d]pyridin-2(1H)-yl)benzenesulfonamide]	950
CCN(CC)C(=O)C1CCCN(C(=O)c2cccc(-n3[nH]c4c(c(-c5cccc(C(F)(F)F)c5)nc5c4cnn5C)c3=O)c2)C1 (stereo not drawn) [Example 58]	110
Cn1ncc2c3[nH]n(-c4ccc(F)c(C(=O)Nc5ccc(CO)cc5)c4)c(=O)c3c(-c3cccc(C(F)(F)F)c3)nc21 [Example 68]	370
CN(Cc1ccccc1)C(=O)c1cccc(-n2[nH]c3c(c(-c4cccc(C(F)(F)F)c4)nc4c3cnn4C)c2=O)c1 [Example 56]	180
CC(O)CNC(=O)c1cccc(-n2[nH]c3c(c(-c4cccc(C(F)(F)F)c4)nc4c3cnn4C)c2=O)c1 (stereo not drawn) [Example 19, N-(2-hydroxypropyl)-3-(6-methyl-3-oxo-4-[3-(trifluoromethyl)phenyl]-3,6-dihydrodipyrazolo[3,4-b:3,4-d]-pyridin-2(1H)-yl)benzamide]	45
CC(O)CNC(=O)c1ccc(-n2[nH]c3c(c(-c4cccc(C(F)(F)F)c4)nc4c3cnn4C)c2=O)cc1 (stereo not drawn) [Example 76]	50
Cn1ncc2c3[nH]n(-c4cccc(C(=O)NCc5ccccc5)c4)c(=O)c3c(-c3cccc(C(F)(F)F)c3)nc21 [Example 49]	120

Structure (SMILES)	IC50 [nM]
CN(CCC#N)C(=O)c1ccc(-n2[nH]c3c(c(-c4cccc(C(F)(F)F)c4)nc4c3cnn4C)c2=O)cc1 [Example 72]	110
CN(CCC(N)=O)C(=O)c1ccc(-n2[nH]c3c(c(-c4cccc(C(F)(F)F)c4)nc4c3cnn4C)c2=O)cc1 [Example 85]	1800
Cn1ncc2c3[nH]n(-c4cccc(C(=O)N5CCSCC5)c4)c(=O)c3c(-c3cccc(C(F)(F)F)c3)nc21 [Example 10]	70
COC(CN(C)C(=O)c1cccc(-n2[nH]c3c(c(-c4cccc(C(F)(F)F)c4)nc4c3cnn4C)c2=O)c1)OC [Example 8, N-(2,2-dimethoxyethyl)-N-methyl-3-(6-methyl-3-oxo-4-[3-(trfluoromethyl)phenyl]-3,6-dihydrodipyrazolo[3,4-b:3,4-d]pyridin-2(1H)-yl)benzamide]	31
Cn1ncc2c3[nH]n(-c4ccc(Cl)c(C(=O)N5CCC[C@@H]5CO)c4)c(=O)c3c(-c3cccc(C(F)(F)F)c3)nc21 [Example 23, 2-(4-chloro-3-{[(2R)-2-(hydroxymethyl)pyrrolidin-1-yl]carbonyl}phenyl)-6-methyl-4-[3-(trifluoromethyl)phenyl]-1,6-dihydrodipyrazolo[3,4-b:3,4-d]pyridin-3(2H)-one]	43
Cc1c(CO)cccc1NC(=O)c1ccc(-n2[nH]c3c(c(-c4cccc(C(F)(F)F)c4)nc4c3cnn4C)c2=O)cc1 [Example 84]	90
Cn1ncc2c3[nH]n(-c4ccc(C(=O)N5CCC(O)CC5)cc4)c(=O)c3c(-c3cccc(C(F)(F)F)c3)nc21 [Example 94]	1200
Cn1ncc2c3[nH]n(-c4ccc(C(=O)NCC5CC5)cc4)c(=O)c3c(-c3cccc(C(F)(F)F)c3)nc21 [Example 75]	107
Cn1ncc2c3[nH]n(-c4cccc(C(=O)Nc5ccc(F)c(F)c5)c4)c(=O)c3c(-c3cccc(C(F)(F)F)c3)nc21 [Example 47]	280
Cn1ncc2c3[nH]n(-c4ccc(C(=O)Nc5ccccc5O)cc4)c(=O)c3c(-c3cccc(C(F)(F)F)c3)nc21 [Example 74, N-(2-hydroxyphenyl)-4-{6-methyl-3-oxo-3-[3-(trfluoromethyl)phenyl]-3,6-dihydrodipyrazolo[3,4-b:3′,4′-d]pyridin-2(1H)-yl}benzamide]	17
Cn1ncc2c3[nH]n(-c4ccc(C(=O)N5CCSCC5)cc4)c(=O)c3c(-c3cccc(C(F)(F)F)c3)nc21 [Example 77]	140
Cn1ncc2c3[nH]n(-c4cccc(C(=O)Nc5ccc(O)cc5)c4)c(=O)c3c(-c3cccc(C(F)(F)F)c3)nc21 [Example 7, N-(4-hydroxyphenyl)-3-(6-methyl-3-oxo-4-[3-(trifluoromethyl)phenyl]-3,6-dihydrodipyrazolo[3,4-b:3,4-d]pyridin-2(1H)-yl)benzamide]	38
COc1ccc(CNC(=O)c2cccc(-n3[nH]c4c(c(-c5cccc(C(F)(F)F)c5)nc5c4cnn5C)c3=O)c2)cc1 [Example 60]	180
Cn1ncc2c3[nH]n(-c4ccc(F)c(C(=O)N5CCOCC5)c4)c(=O)c3c(-c3cccc(C(F)(F)F)c3)nc21 [Example 66]	2400
Cn1ncc2c3[nH]n(-c4ccc(C(=O)Nc5cccc(O)c5)cc4)c(=O)c3c(-c3cccc(C(F)(F)F)c3)nc21 [Example 71]	140
COC(=O)CNC(=O)c1cccc(-n2[nH]c3c(c(-c4cccc(C(F)(F)F)c4)nc4c3cnn4C)c2=O)c1 [Example 45]	100
CC(O)c1cccc(NC(=O)c2cc(-n3[nH]c4c(c(-c5cccc(C(F)(F)F)c5)nc5c4cnn5C)c3=O)ccc2F)c1 (stereo not drawn) [Example 65]	1000
Cn1ncc2c3[nH]n(-c4ccc(S(=O)(=O)NCCCCCO)cc4)c(=O)c3c(-c3cccc(C(F)(F)F)c3)nc21 [Example 102, N-(5-Hydroxypentyl)-4-{6-methyl-3-oxo-4-[3-(trifluoromethyl)phenyl]-3,6-dihydrodipyrazolo[3,4-b:3′,4′-d]pyridin-2(1H)-yl}benzenesulfonamide]	670
